From US20120016155A1, “DIASTEREOISOMERS OF HYPOPHOSPHOROUS ACID DERIVATIVES” (priority 2009, published 2012)
Where a name gives a salt, the structure may show the parent alone. Read-outs that look alike come from different tables or passages of the source.

Experiments:
Assay type in all cases: cell-based
mGlu6 = mGlu6 (Homo sapiens, UniProt O15303); assay: Activities on metabotropic glutamate receptor 6 (EC50; readout marked IP or by a symbol); conditions: mean ± spread (n), read-out: mG1u6 EC50 μM (n) (converted)
Excerpt: (§1) Activities on Metabotropic Glutamate Receptors 4, 8, 6 and 7.
(§2) Nitrobenzyl PCEP Derivatives

mGlu7 = mGlu7 (Homo sapiens, UniProt Q14831); assay: Activities on metabotropic glutamate receptor 7 (EC50; readout marked IP or by a symbol); conditions: mean ± spread (n), read-out: mG1u7 EC50 μM (n) (converted)
Excerpt: as §1, §2

mGlu8 = mGlu8 (Homo sapiens, UniProt O00222); assay: Activities on metabotropic glutamate receptor 8 (EC50; readout marked IP or by a symbol)
Excerpt: as §1, §2

mGlu4 = mGlu4 (Homo sapiens, UniProt Q14833); assay: Activities on metabotropic glutamate receptor 4 (EC50; readout marked IP or by a symbol); conditions: for mGlu8/4 EC50 ratio: ratio of mGlu8 EC50 to mGlu4 EC50, one per pair of values (readout/batch)
Excerpt: as §1, §2

[1] = values marked IP, mean ± spread (n)
[2] = values marked with an image symbol (second readout, not IP)
[3] = values marked with an image symbol (second readout, not IP), mean ± spread (n)

mGlu6, sequence (O15303 25-877): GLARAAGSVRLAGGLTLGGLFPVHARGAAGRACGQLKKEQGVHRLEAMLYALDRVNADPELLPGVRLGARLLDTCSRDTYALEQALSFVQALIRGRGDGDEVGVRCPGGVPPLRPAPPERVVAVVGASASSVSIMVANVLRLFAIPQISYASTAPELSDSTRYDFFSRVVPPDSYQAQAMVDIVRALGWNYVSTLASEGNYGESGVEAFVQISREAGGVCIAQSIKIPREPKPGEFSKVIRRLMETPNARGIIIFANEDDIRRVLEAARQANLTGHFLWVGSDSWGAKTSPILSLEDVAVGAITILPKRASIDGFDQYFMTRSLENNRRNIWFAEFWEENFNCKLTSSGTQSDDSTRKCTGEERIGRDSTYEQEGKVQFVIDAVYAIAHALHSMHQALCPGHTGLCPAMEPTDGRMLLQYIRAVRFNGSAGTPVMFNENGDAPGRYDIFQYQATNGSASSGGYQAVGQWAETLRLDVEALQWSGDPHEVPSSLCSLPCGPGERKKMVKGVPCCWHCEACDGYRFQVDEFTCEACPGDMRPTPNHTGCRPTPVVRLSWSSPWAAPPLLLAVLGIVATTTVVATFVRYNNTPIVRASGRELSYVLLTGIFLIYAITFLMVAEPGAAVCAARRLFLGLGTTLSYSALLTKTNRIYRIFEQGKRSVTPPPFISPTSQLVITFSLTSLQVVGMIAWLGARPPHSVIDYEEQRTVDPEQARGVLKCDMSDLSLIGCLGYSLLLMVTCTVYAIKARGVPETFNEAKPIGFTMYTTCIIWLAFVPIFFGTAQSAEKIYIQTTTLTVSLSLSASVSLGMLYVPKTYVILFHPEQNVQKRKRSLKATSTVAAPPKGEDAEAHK
mGlu7, sequence (Q14831 35-915): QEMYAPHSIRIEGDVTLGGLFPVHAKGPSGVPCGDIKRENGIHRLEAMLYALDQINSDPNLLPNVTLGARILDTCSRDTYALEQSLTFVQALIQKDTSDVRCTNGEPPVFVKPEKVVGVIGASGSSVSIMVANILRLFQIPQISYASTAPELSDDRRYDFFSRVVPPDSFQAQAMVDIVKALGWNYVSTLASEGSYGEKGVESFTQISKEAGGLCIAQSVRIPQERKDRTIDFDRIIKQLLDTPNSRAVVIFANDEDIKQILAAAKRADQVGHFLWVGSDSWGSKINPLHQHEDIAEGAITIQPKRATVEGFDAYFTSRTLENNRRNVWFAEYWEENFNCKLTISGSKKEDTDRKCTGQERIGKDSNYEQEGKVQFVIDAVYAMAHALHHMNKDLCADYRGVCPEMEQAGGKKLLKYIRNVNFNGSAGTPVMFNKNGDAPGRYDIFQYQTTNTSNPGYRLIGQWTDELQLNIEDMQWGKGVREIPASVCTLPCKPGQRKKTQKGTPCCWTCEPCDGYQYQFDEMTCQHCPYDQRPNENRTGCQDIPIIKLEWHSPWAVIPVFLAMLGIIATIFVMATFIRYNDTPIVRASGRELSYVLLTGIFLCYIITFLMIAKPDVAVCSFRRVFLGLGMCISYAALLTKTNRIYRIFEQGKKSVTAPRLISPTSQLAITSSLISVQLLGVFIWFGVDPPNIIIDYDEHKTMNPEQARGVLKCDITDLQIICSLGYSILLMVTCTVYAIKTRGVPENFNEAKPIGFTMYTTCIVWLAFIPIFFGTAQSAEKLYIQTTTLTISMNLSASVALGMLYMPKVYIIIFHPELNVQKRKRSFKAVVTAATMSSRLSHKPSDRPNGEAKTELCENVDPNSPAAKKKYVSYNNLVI
mGlu4, sequence (Q14833 33-912): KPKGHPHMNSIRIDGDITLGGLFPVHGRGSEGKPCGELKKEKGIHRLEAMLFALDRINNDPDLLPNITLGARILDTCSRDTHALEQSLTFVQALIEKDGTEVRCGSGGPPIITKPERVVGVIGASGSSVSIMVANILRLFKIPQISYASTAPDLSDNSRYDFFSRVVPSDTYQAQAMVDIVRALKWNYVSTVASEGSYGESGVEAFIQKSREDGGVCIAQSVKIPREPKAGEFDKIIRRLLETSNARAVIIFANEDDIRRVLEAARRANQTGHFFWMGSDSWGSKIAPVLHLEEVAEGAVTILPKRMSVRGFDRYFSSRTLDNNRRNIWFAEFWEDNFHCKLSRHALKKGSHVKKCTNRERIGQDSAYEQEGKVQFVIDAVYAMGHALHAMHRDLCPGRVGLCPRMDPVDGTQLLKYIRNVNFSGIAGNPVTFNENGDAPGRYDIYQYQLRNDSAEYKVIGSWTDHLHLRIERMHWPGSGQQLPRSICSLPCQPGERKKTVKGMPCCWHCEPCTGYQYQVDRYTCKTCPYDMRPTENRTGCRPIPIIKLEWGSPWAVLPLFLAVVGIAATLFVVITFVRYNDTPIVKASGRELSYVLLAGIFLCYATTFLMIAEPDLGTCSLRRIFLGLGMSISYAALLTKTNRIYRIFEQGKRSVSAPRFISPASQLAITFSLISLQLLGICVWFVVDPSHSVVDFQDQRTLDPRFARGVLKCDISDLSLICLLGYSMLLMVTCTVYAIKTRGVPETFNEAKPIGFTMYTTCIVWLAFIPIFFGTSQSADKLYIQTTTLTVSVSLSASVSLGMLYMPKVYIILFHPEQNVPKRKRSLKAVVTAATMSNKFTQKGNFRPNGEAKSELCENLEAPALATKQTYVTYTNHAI
mGlu8, sequence (O00222 34-908): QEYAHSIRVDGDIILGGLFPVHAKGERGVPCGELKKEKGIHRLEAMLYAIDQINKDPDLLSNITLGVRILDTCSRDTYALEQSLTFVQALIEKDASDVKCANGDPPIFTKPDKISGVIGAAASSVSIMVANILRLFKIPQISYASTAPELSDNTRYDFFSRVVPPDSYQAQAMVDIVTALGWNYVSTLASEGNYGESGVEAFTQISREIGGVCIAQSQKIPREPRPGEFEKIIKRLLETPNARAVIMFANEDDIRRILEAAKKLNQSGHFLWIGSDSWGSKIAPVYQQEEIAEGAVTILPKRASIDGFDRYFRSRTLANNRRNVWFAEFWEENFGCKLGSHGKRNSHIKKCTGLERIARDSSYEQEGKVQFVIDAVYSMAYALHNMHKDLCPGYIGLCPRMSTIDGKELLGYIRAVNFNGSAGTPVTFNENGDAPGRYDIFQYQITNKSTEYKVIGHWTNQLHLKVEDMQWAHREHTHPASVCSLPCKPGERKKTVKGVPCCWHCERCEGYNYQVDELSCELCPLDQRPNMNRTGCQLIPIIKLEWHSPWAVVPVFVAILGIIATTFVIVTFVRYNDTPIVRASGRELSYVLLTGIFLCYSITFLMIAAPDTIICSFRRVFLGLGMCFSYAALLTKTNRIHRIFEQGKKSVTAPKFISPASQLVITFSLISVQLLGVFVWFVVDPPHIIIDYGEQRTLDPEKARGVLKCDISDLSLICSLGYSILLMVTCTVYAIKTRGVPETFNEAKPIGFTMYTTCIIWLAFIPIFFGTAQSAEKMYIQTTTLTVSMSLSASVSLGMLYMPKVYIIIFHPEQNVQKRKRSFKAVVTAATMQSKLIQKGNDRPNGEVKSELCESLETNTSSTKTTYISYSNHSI

mGlu8/4 EC50 ratio (mGlu4) | EC50 (mGlu4; [3]) [µM] | EC50 (mGlu8; [3]) [µM] | Compound | other results
– | – | – | N[C@@H](CCP(=O)(O)C(O)c1cccc([N+](=O)[O-])c1)C(=O)O (mixture of isomers) [LSP1-2093, (3S)-3-[(((3-ammonium-3-carboxy)propyl)(hydroxy)phosphinyl)-hydroxymethyl]3-nitrobenzene] | EC50 (mGlu6; values marked IP): 8.8 ± 0.7 µM; EC50 (mGlu7; values marked IP): > 1000 µM; EC50 (mGlu8; [1]): 1.5 ± 0.5 µM
– | – | – | COc1cc(C(O)P(=O)(O)CC[C@H](N)C(=O)O)cc([N+](=O)[O-])c1O (mixture of isomers) [LSP1-2111, (3S)-3-[(((3-ammonium-3-carboxy)propyl)(hydroxy)phosphinyl)-hydroxymethyl]4-hydroxy-5-methoxy-3-nitrobenzene] | EC50 (mGlu4; value printed without readout mark, read-out: mGlu4 EC50 μM (n) (converted)): 1.5 µM; EC50 (mGlu4; [1]): 2.2 ± 0.3 µM; EC50 (mGlu6; values marked IP): 1.7 ± 0.1 µM; EC50 (mGlu6; [2]): 3.18 µM; EC50 (mGlu7; values marked IP): 53 ± 20 µM; EC50 (mGlu7; [2]): 101 µM; EC50 (mGlu8; value printed without readout mark, read-out: mGlu8 EC50 μM (n) (converted)): 113 µM; EC50 (mGlu8; [1]): 66 ± 12 µM
3.1 | 8.5 ± 1.1 | 27 ± 20 | CCOc1cc(C(O)P(=O)(O)CC[C@H](N)C(=O)O)cc([N+](=O)[O-])c1O (mixture of isomers) [LSP3-1145, (3S)-3-[(((3-ammonium-3-carboxy)propyl)(hydroxy)phosphinyl)-hydroxymethyl]4-hydroxy-5-ethoxy-3-nitrobenzene] | –
– | 2 ± 0.4 | 2.5 ± 0.8 | COc1ccc(C(O)P(=O)(O)CC[C@H](N)C(=O)O)cc1[N+](=O)[O-] (single isomer, unassigned) [LSP2-6146-I, hydrochloride] | mGlu8/4 EC50 ratio (mGlu4; hydrochloride): 1.2
1.3 | 1.7 ± 0.6 | 2.2 ± 0.6 | COc1ccc(C(O)P(=O)(O)CC[C@H](N)C(=O)O)cc1[N+](=O)[O-] (single isomer, unassigned) [LSP2-6146-II, hydrochloride] | –
– | 1 ± 0.4 | 1.25 ± 0.3 | NC(CCP(=O)(O)C(O)c1cccc([N+](=O)[O-])c1)C(=O)O (single isomer, unassigned) [LSP3-1098-I, hydrochloride] | –
– | 0.9 ± 0.4 | 1.3 ± 0.5 | NC(CCP(=O)(O)C(O)c1cccc([N+](=O)[O-])c1)C(=O)O (single isomer, unassigned) [LSP3-1098-II, hydrochloride] | –
– | 0.74 ± 0.09 | 23 ± 6 | COc1cc(C(O)P(=O)(O)CC[C@H](N)C(=O)O)cc([N+](=O)[O-])c1O (single isomer, unassigned) [LSP3-1101-I, hydrochloride] | mGlu8/4 EC50 ratio (mGlu4; hydrochloride): 31; EC50 (mGlu6; [2]): 1.11 ± 0.41 µM; EC50 (mGlu7; [2]): 63 ± 35 µM
5.9 | 4.7 ± 0.4 | 27 ± 14 | COc1cc(C(O)P(=O)(O)CC[C@H](N)C(=O)O)cc([N+](=O)[O-])c1O (single isomer, unassigned) [LSP3-1101-II, hydrochloride] | EC50 (mGlu6; [2]): 2.36 ± 0.77 µM; EC50 (mGlu7; [2]): 100 ± 49 µM
– | 5.1 ± 1.2 | 33 ± 31 | CCOc1cc(C(O)P(=O)(O)CC[C@H](N)C(=O)O)cc([N+](=O)[O-])c1O (single isomer, unassigned) [LSP3-1143-I, hydrochloride] | mGlu8/4 EC50 ratio (mGlu4; hydrochloride): 6.5
1.4 | 6.4 ± 2.4 | 9.2 ± 2.6 | CCOc1cc(C(O)P(=O)(O)CC[C@H](N)C(=O)O)cc([N+](=O)[O-])c1O (single isomer, unassigned) [LSP3-1143-II, hydrochloride] | –
– | 0.5 ± 0.07 | 31.5 ± 8.6 | N[C@@H](CCP(=O)(O)C(O)c1ccc(O)c([N+](=O)[O-])c1)C(=O)O (single isomer, unassigned) [LSP3-2074-I, hydrochloride] | mGlu8/4 EC50 ratio (mGlu4; hydrochloride): 63; EC50 (mGlu6; [2]): 3.9 ± 1.7 µM; EC50 (mGlu7; [2]): 62 ± 26 µM
– | 4.5 ± 0.2 | 39.8 ± 6.5 | Cl.N[C@@H](CCP(=O)(O)C(O)c1ccc(O)c([N+](=O)[O-])c1)C(=O)O (single isomer, unassigned) [LSP3-2074-II, hydrochloride] | EC50 (mGlu6; [2]): 68.4 ± 14.5 µM; EC50 (mGlu7; [2]): 295 ± 178 µM
8.5 | – | – | Cl.N[C@@H](CCP(=O)(O)C(O)c1ccc(O)c([N+](=O)[O-])c1)C(=O)O (single isomer, unassigned) [LSP3-2074-II] | –
2.3 | 13 ± 2.9 | 29.3 ± 7.2 | N[C@@H](CCP(=O)(O)C(O)c1cccc(OCC(=O)O)c1)C(=O)O (single isomer, unassigned) [LSP3-3108-II] | –
7.4 | 4.9 ± 1 | 36 ± 18 | N[C@@H](CCP(=O)(O)C(O)c1cccc(OCC(=O)O)c1)C(=O)O (single isomer, unassigned) [LSP3-3108-I] | –
– | 4.2 | 4.4 | COc1ccc(C(O)P(=O)(O)CC[C@H](N)C(=O)O)cc1[N+](=O)[O-] (stereo partly drawn) [LSP1-2101, (3S)-3-[(((3-amino-3-carboxy)propyl) (hydroxy)phosphinyl)-hydroxymethyl]-4-methoxy-3-nitrobenzene] | EC50 (mGlu4; [1]): 0.5 ± 0.09 µM; EC50 (mGlu8; [1]): 0.85 ± 0.07 µM
– | – | – | N[C@@H](CCP(=O)(O)C(O)c1ccc(O)c([N+](=O)[O-])c1)C(=O)O (stereo partly drawn) [LSP1-2109, (3S)-3-[(((3-amino-3-carboxy)propyl) (hydroxy)phosphinyl)-hydroxymethyl]-4-hydroxy-3-nitrobenzene] | EC50 (mGlu6; values marked IP): 6 ± 0.9 µM; EC50 (mGlu6; [2]): 6.3 µM; EC50 (mGlu7; values marked IP): 69 ± 8 µM; EC50 (mGlu7; [2]): 125 µM
4.1 | – | – | NC(c1cccc([N+](=O)[O-])c1)P(=O)(O)CC[C@H](N)C(=O)O (stereo partly drawn) [LSP1-3131, (2S)-amino-4-[[amino(3-nitrophenyl)methyl](hydroxy)phosphinyl]butanoic acid] | EC50 (mGlu4; [1]): 0.54 ± 0.14 µM; EC50 (mGlu8; [1]): 2.2 ± 0.9 µM
– | 0.42 | 1 | N[C@@H](CCP(=O)(O)Cc1cccc([N+](=O)[O-])c1)C(=O)O [LSP3-1045, (3S)-3-[(((3-ammonium-3-carboxy)propyl) (hydroxy)phosphinyl)-methyl]3-nitrobenzene] | EC50 (mGlu4; [1]): 0.8 ± 0.2 µM; EC50 (mGlu8; [1]): 4.4 ± 2 µM
9.4 | 7.6 ± 2 | 71 ± 25 | N[C@@H](CCP(=O)(O)C(O)c1cccc(OCC(=O)O)c1)C(=O)O (stereo partly shown) [LSP3-3099] | –
– | 13 ± 3.9 | 33 ± 12 | COc1cc(C(N)P(=O)(O)CC[C@H](N)C(=O)O)cc([N+](=O)[O-])c1O (stereo partly drawn) [LSP4-1184, (2S)-amino-4-[[amino(4-hydroxy-5-methoxy-3-nitrophenyl)methyl](hydroxy)phosphoryl]butanoic acid] | –

Compound | mGlu8/4 EC50 ratio (mGlu4) | EC50 (mGlu4; [3]) [µM] | EC50 (mGlu8; [3]) [µM] | other results
COc1cc(CP(=O)(O)CC[C@H](N)C(=O)O)cc([N+](=O)[O-])c1O.N [LSP3-2134, (3S)-3-[(((3-ammonium-3-carboxy)propyl)(hydroxy)phosphinyl)-methyl]4-hydroxy-5-methoxy-3-nitrobenzene] | 0.85 | 19.7 ± 10.5 | 16.6 ± 1.1 | –
